From US4238472A, “Radioimmunoassay for chlorinated dibenzo-p-dioxins” (priority 1978, dated 1980)

Assays:
[1] = test system: antiserum F-12; experiment: Specificity / cross reactivity of the radioimmunoassay, antiserum F-12; assay type: binding, rabbit; settings: for Percentage Reactivity (inhibition of 125I binding relative to inhibition by 5 ng of 2,3,7,8-TCDD): "Cutscum"
Description: (§1) Since TCDD itself has no chemically reactive functional groups, a derivative was synthesized that retained most of the structural features of TCDD but with the addition of a reactive site. This derivative was coupled to an immunogenic protein carrier, such as bovine serum albumin, rabbit serum albumin, etc., so that animals would respond to it by producing an antiserum containing antibodies. A second compound was synthesized, still structurally similar to TCDD so that it would bind to the antibodies, but capable of being labeled with ^125 I for detectability at the picogram level. An amount of antiserum capable of binding about 20 pg of ^125 I-labeled dioxin derivative (hapten) is preincubated with the detergent emulsion of the sample extract (possibly containing TCDD). Then the mixture is incubated with the ^125 I-labeled derivative long enough for equilibrium binding to occur and form the hapten-antibody complex. A second antibody, namely, goat antibodies against rabbit gamma-globulin (i.e., goat anti-rabbit γ-globulin) are then added to precipitate the antibody ^125 I-labeled dioxin complex, and the amount of ^125 I in the precipitate is determined. The extent to which preincubation with the test material inhibits or decreases the amount of ^125 I precipitated relative to the amount precipitated in the absence of test material is a measure of the amount of chlorodibenzodioxin in the test sample.
(§2) Radioimmunoassay of small molecules requires some means of separating free hapten from antibody-bound hapten. The procedure used in the present invention, chosen because of its compatibility with detergent-solubilized hapten, involved precipitating the antibody-hapten complex with a second antibody, namely, goat antibodies against rabbit gamma-globulin. In this assay chlorodibenzodioxin from the environmental sample completes with the ^125 I-labeled hapten for binding to the antibody. Thus, the decrease in precipitation of radioactivity is a measure of the amount of (unlabeled) hapten in the test sample.
(§3) The assay buffer (hereinafter referred to as "PBS") contained, per liter, 20 mmol of potassium phosphate, 140 mmol of NaCl, and 200 mg of sodium azide. The pH was adjusted to 7.3 with NaOH. Antiserum was diluted with PBS also containing 0.1% bovine gamma globulin and 0.02% rabbit gamma globulin (w/v). Each assay tube from procedure G above received 0.2 ml of PBS, after which the tubes were held in the sonicator for 40 minutes and then cooled to room temperature. Appropriately diluted antiserum or, as control, antiserum diluant was added (0.2 ml) and, after vortex-mixing, the tubes were incubated for 40 minutes at 37°. 14000 disintegrations per minute (hereafter referred to as "DPM") or 7000 counts per minute (hereinafter referred to as "CPM", which equals DPM×counting efficiency) of [^125 I]-iodovaleramide derivative of trichlorodibenzo-p-dioxin in PBS containing 1% "Cutscum" were then added to each tube (approximately 10 μl), vortex mixed, and the tubes incubated for 1 hour at 37° followed by an additional 65 hours of incubation at 4°. Each tube next received 1.24 units of goat anti-rabbit gamma globulin in 0.2 ml of PBS containing 0.05 mM ethylenediamine tetracetic acid (hereinafter referred to as "EDTA"), was vortex mixed, and incubated for 5 hours at 4°. The tubes were centrifuged at 500×g for 20 minutes at 4°. The supernates were poured off and the tubes allowed to drain into Whatman #3 MM paper for 10 minutes. The precipitate or pellets obtained were then radioassayed for ^125 I, with 10 minute count cycles.
(§4) Standard curves were prepared using sequential two-fold dilutions of TCDD or other test compounds in benzene and evaporating the solvent as described above. Both control (blank) and TCDD-spiked tissues were extracted and processed as described above to determine general interference and recoveries. All samples were run in triplicate. […]

[2] = test system: antiserum GC-5; experiment: Cross reactivity in chlorinated DBD radioimmunoassay, antiserum GC-5; assay type: binding, rabbit
Description: as §1, §2, §3, §4

Structure (SMILES): Clc1cc2c(cc1Cl)Oc1c(Cl)c(Cl)c(Cl)c(Cl)c1O2 [1,2,3,4,7,8-Cl6 Dibenzo-p-Dioxin]
- Cross Reactivity, Antiserum F-12: 100 × (inhibition of 125I binding by 4 pmole of test compound)/(inhibition by 4 pmole of 2,3,7,8-TCDD) [1]: 9%
- Cross Reactivity, Antiserum GC-5: 100 × (inhibition of 125I binding by 4 pmole of test compound)/(inhibition by 4 pmole of 2,3,7,8-TCDD) [2]: 99%

Structure (SMILES): Clc1c(Cl)c(Cl)c2c(c1Cl)Oc1ccccc1O2 [1,2,3,4-Cl4 Dibenzo-p-Dioxin, 1,2,3,4-tetrachloro DBD]
- Cross Reactivity, Antiserum F-12: 100 × (inhibition of 125I binding by 4 pmole of test compound)/(inhibition by 4 pmole of 2,3,7,8-TCDD) [1]: < 1%
- Cross Reactivity, Antiserum GC-5: 100 × (inhibition of 125I binding by 4 pmole of test compound)/(inhibition by 4 pmole of 2,3,7,8-TCDD) [2]: 20%
- maximum inhibition of binding of 125I-labeled hapten ([2]; GC-5 diluted such that 33% of the label was bound in the absence of competitors): up to 18%

Structure (SMILES): Clc1cc2c(cc1Cl)Oc1c(Cl)c(Cl)cc(Cl)c1O2 [1,2,4,7,8-Cl5 Dibenzo-p-Dioxin]
- Cross Reactivity, Antiserum F-12: 100 × (inhibition of 125I binding by 4 pmole of test compound)/(inhibition by 4 pmole of 2,3,7,8-TCDD) [1]: 36%
- Cross Reactivity, Antiserum GC-5: 100 × (inhibition of 125I binding by 4 pmole of test compound)/(inhibition by 4 pmole of 2,3,7,8-TCDD) [2]: 76%

Structure (SMILES): Brc1cc2oc3cc(Br)c(Br)cc3c2cc1Br [2,3,7,8-Br4 Dibenzofuran]
- Cross Reactivity, Antiserum F-12: 100 × (inhibition of 125I binding by 4 pmole of test compound)/(inhibition by 4 pmole of 2,3,7,8-TCDD) [1]: 46%

Structure (SMILES): Clc1ccc2oc3cc(Cl)c(Cl)cc3c2c1 [2,3,8-Cl3 Dibenzofuran]
- Cross Reactivity, Antiserum GC-5: 100 × (inhibition of 125I binding by 4 pmole of test compound)/(inhibition by 4 pmole of 2,3,7,8-TCDD) [2]: 2%

Structure (SMILES): Clc1cc(Cl)c(-c2cc(Cl)c(Cl)cc2Cl)cc1Cl [2,4,5,2',4',5'-HCBP]
- Percentage Reactivity (inhibition of 125I binding relative to inhibition by 5 ng of 2,3,7,8-TCDD) ([1]; highest amount tested 100 ng): 0%

Structure (SMILES): O=C(O)COc1cc(Cl)c(Cl)cc1Cl [2,4,5-T (Commercial), 2,4,5-trichlorophenoxyacetic acid]
- Percentage Reactivity (inhibition of 125I binding relative to inhibition by 5 ng of 2,3,7,8-TCDD) ([1]; highest amount tested 10 μg): 37%

Structure (SMILES): Clc1cccc(Cl)c1-c1c(Cl)cccc1Cl [2,6,2',6'-TCBP]
- Percentage Reactivity (inhibition of 125I binding relative to inhibition by 5 ng of 2,3,7,8-TCDD) ([1]; highest amount tested 200 ng): 0%

Structure (SMILES): O=C1OC2(c3cc(Cl)c(O)cc3Oc3cc(O)c(Cl)cc32)c2ccccc21 [2,7-Dichlorofluorescein]
- Percentage Reactivity (inhibition of 125I binding relative to inhibition by 5 ng of 2,3,7,8-TCDD) ([1]; highest amount tested 200 ng): 0%

Structure (SMILES): Clc1ccc2oc3ccc(Cl)cc3c2c1 [2,8-Cl2 Dibenzofuran]
- Cross Reactivity, Antiserum GC-5: 100 × (inhibition of 125I binding by 4 pmole of test compound)/(inhibition by 4 pmole of 2,3,7,8-TCDD) [2]: 12%

Structure (SMILES): Clc1ccc(-c2ccc(Cl)c(Cl)c2)cc1Cl [3,4,3',4'-TCBP, 3,4,3'4'-tetrachlorobiphenyl]
- Percentage Reactivity (inhibition of 125I binding relative to inhibition by 5 ng of 2,3,7,8-TCDD) ([1]; highest amount tested 5 ng): 6%

Structure (SMILES): Clc1ccc(Oc2ccc(Cl)c(Cl)c2)cc1Cl [3,4,3',4'-TCBPE]
- Percentage Reactivity (inhibition of 125I binding relative to inhibition by 5 ng of 2,3,7,8-TCDD) ([1]; highest amount tested 200 ng): 0.1%

Structure (SMILES): Clc1cc(-c2cc(Cl)c(Cl)c(Cl)c2)cc(Cl)c1Cl [3,4,5,3',4',5'-HCBP]
- Percentage Reactivity (inhibition of 125I binding relative to inhibition by 5 ng of 2,3,7,8-TCDD) ([1]; highest amount tested 100 ng): 0%

Structure (SMILES): Clc1cc(Cl)cc(-c2cc(Cl)cc(Cl)c2)c1 [3,5,3',5'-TCBP]
- Percentage Reactivity (inhibition of 125I binding relative to inhibition by 5 ng of 2,3,7,8-TCDD) ([1]; highest amount tested 100 ng): 0%

Structure (SMILES): O=C1c2ccccc2-c2ccccc21 [9-Fluorenone]
- Percentage Reactivity (inhibition of 125I binding relative to inhibition by 5 ng of 2,3,7,8-TCDD) ([1]; highest amount tested 100 ng): 0%

Structure (SMILES): c1ccc2cc3ccccc3cc2c1 [Anthracene]
- Percentage Reactivity (inhibition of 125I binding relative to inhibition by 5 ng of 2,3,7,8-TCDD) ([1]; highest amount tested 100 ng): 0%

Structure (SMILES): CCCCCCCC/C=C\CCCCCCCC(=O)O[C@H]1CC[C@@]2(C)C(=CC[C@H]3[C@@H]4CC[C@H]([C@H](C)CCCC(C)C)[C@@]4(C)CC[C@@H]32)C1 [Cholesterol Oleate]
- Percentage Reactivity (inhibition of 125I binding relative to inhibition by 5 ng of 2,3,7,8-TCDD) ([1]; highest amount tested 100 μg): 0%

Structure (SMILES): ClC(Cl)=C(c1ccc(Cl)cc1)c1ccc(Cl)cc1 [DDE]
- Percentage Reactivity (inhibition of 125I binding relative to inhibition by 5 ng of 2,3,7,8-TCDD) ([1]; highest amount tested 400 ng): 0%

Structure (SMILES): CCCCC(CC)COC(=O)c1ccccc1C(=O)OCC(CC)CCCC (centres unmarked) [DEHP, di(2-ethylhexyl) phthalate]
- Percentage Reactivity (inhibition of 125I binding relative to inhibition by 5 ng of 2,3,7,8-TCDD) ([1]; highest amount tested 100 μg): 0%

Structure (SMILES): Oc1c(Cl)c(Cl)c(Cl)c(Cl)c1Cl [Pentachlorophenol]
- Percentage Reactivity (inhibition of 125I binding relative to inhibition by 5 ng of 2,3,7,8-TCDD) ([1]; highest amount tested 10 μg): 0%

Structure (SMILES): CCCCC(CC)COC(=O)c1c(Cl)c(Cl)c(Cl)c(Cl)c1C(=O)OCC(CC)CCCC (centres unmarked) [Tetrachloro DEHP]
- Percentage Reactivity (inhibition of 125I binding relative to inhibition by 5 ng of 2,3,7,8-TCDD) ([1]; highest amount tested 200 ng): 0.1%

Structure (SMILES): CC(=O)Oc1c(C)c(C)c2c(c1C)CCC(C)(CCCC(C)CCCC(C)CCCC(C)C)O2 (stereo not drawn) [α-Tocopherol Acetate]
- Percentage Reactivity (inhibition of 125I binding relative to inhibition by 5 ng of 2,3,7,8-TCDD) ([1]; highest amount tested 200 ng): 0%
